Where “and” joins values, the source holds several entries; their conditions need not be identical. Equal entries are not always repeated. Where two headings read alike, the source gives them in different places.
Legend:
[1] = target: hCB1 (Homo sapiens, UniProt P21554); experiment: bioSensAll ebBRET signaling profiling, hCB1; assay type: cell-based; parameters: host or cells: HEK293SL cells, transient PEI transfection; settings: for Gi1 hCB1 response: Gi1 biosensor; for Gi1 hCB1 / GoB hCB1: single replicate values, FigS6a; for EC50: read-out: EC50 [95% CI]; for Emax: normalized to CP-55,940
Chain of hCB1 (P21554 whole entry): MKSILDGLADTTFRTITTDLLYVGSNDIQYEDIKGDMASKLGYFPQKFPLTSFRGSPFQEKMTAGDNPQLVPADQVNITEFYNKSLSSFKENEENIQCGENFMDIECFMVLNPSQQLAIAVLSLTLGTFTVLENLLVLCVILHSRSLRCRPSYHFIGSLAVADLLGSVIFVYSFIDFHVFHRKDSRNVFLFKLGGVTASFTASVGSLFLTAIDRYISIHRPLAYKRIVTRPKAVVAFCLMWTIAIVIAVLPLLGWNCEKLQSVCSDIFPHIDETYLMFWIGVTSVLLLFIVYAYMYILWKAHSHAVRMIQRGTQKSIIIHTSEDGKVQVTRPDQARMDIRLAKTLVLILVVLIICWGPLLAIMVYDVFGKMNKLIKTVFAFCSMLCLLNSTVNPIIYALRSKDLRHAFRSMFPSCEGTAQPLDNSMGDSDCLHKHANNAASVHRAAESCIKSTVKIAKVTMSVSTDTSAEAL

[2] = target: CB1 (rCB1) (Rattus norvegicus, UniProt P20272); experiment: Radioligand competition binding, [3H]-CP-55,940, rat brain membranes
Chain of CB1 (rCB1) (P20272 whole entry): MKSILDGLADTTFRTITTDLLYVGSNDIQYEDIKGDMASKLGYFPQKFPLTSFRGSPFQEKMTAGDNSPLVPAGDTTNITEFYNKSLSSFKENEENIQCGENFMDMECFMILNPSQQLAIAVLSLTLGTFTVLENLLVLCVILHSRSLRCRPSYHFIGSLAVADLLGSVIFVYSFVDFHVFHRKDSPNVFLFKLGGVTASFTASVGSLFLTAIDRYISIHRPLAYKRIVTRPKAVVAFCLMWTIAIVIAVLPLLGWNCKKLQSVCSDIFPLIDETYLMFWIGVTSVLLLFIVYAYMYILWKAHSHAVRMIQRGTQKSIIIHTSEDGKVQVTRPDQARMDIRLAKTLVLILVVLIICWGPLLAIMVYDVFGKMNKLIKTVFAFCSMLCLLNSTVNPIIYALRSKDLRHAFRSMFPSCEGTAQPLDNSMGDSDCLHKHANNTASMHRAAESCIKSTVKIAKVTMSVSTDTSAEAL

## Cc1cc(C(=O)NC(c2ccco2)c2ccco2)nn1-c1cccc(C(F)(F)F)c1 [‘1090]
[1]; Log [Compound] (M) -4.22186
  Gi1 hCB1 response: 110.038
  Gi1 hCB1: 93.2514
  GoB hCB1: 92.9275
[1]; Log [Compound] (M) -4.63927
  Gi1 hCB1 response: 112.164
  Gi1 hCB1: 80.9336
  GoB hCB1: 98.7901
[1]; Log [Compound] (M) -5.05788
  Gi1 hCB1 response: 98.6907
  Gi1 hCB1: 80.7948
  GoB hCB1: 84.6911
[1]; Log [Compound] (M) -5.47381
  Gi1 hCB1 response: 79.5321
  Gi1 hCB1: 75.954
  GoB hCB1: 85.1767
[1]; Log [Compound] (M) -5.89285
  Gi1 hCB1 response: 73.4668
  Gi1 hCB1: 77.9273
  GoB hCB1: 88.8273
[1]; Log [Compound] (M) -6.31878
  Gi1 hCB1 response: 61.1346
  Gi1 hCB1: 77.4032
  GoB hCB1: 81.2923
[1]; Log [Compound] (M) -6.72585
  Gi1 hCB1 response: 69.6395
  Gi1 hCB1: 72.1615
  GoB hCB1: 72.8221
[1]; Log [Compound] (M) -7.14267
  Gi1 hCB1 response: 48.8248
  Gi1 hCB1: 54.5866
  GoB hCB1: 60.3417
[1]; Log [Compound] (M) -7.55284
  Gi1 hCB1 response: 35.6645
  Gi1 hCB1: 37.9676
  GoB hCB1: 40.506
[1]; Log [Compound] (M) -8
  Gi1 hCB1 response: 6.211
  Gi1 hCB1: 20.7318
  GoB hCB1: 24.4829
[1]; Log [Compound] (M) -8.22186
  Gi1 hCB1 response: 13.1264
  Gi1 hCB1: 14.9814
  GoB hCB1: 13.6209
[1]; Log [Compound] (M) -8.39794
  Gi1 hCB1 response: -25.5487
  Gi1 hCB1: 11.266
  GoB hCB1: 8.064
[1]; Log [Compound] (M) -8.68787
  Gi1 hCB1 response: -2.72
  Gi1 hCB1: 5.932
  GoB hCB1: 3.406
[1]; Log [Compound] (M) -9.15521
  Gi1 hCB1 response: -19.4162
  Gi1 hCB1: 2.879
  GoB hCB1: 0.583
[1]; Log [Compound] (M) -9.61989
  Gi1 hCB1 response: 5.584
  Gi1 hCB1: 1.785
  GoB hCB1: -2.51
[1]; Log [Compound] (M) -10.0969
  Gi1 hCB1 response: -17.9838
  Gi1 hCB1: 3.897
  GoB hCB1: -0.2442
[1]; Log [Compound] (M) -10.5529
  Gi1 hCB1 response: 0.2123
  Gi1 hCB1: 2.155
  GoB hCB1: -0.55
[1]; Log [Compound] (M) -11.0177
  Gi1 hCB1 response: -1.668
  Gi1 hCB1: 2.633
  GoB hCB1: 0.2233
[1]; Log [Compound] (M) -11.4949
  Gi1 hCB1 response: -1.668
  Gi1 hCB1: 3.6965
  GoB hCB1: 0.565
[1]; Log [Compound] (M) -11.9208
  Gi1 hCB1 response: -2.429
  Gi1 hCB1: 1.261
  GoB hCB1: 2.507
[1]; Log [Compound] (M) -12.3979
  Gi1 hCB1 response: -6.524
  Gi1 hCB1: 3.666
  GoB hCB1: 1.59
[1]; Log [Compound] (M) -12.8861
  Gi1 hCB1 response: -4.734
  Gi1 hCB1: 2.17
  GoB hCB1: 4.557
[1]; Log [Compound] (M) -13, individual replicate values
  Gi1 hCB1 response: -8.293 and -12.478
[1]; Log [Compound] (M) -13
  Gi1 hCB1: 1.415 and 2.093
  GoB hCB1: 4.719 and 2.903
[1]; hCB1 Gi1
  pEC50 [95% CI]: 7.5 [7.3 – 7.5]
  EC50: 35.6 nM
[1]; hCB1 GoB
  pEC50 [95% CI]: 7.4 [7.3 – 7.5]
  EC50: 37.3 nM
[1]; hCB1 Gz
  pEC50 [95% CI]: 6.9 [6.5 – 7.4]
[1]; read-out: Emax [95% CI], hCB1 Gi1
  Emax: 81%
[1]; read-out: Emax [95% CI], hCB1 GoB
  Emax: 90%
[1]; read-out: Emax [95% CI], hCB1 Gz
  Emax: 115%
[2]; rCB1
  pKi [95% CI]: 7.0 [6.7 – 7.4]
[2]; read-out: Ki [95% CI], rCB1, [3H]-CP-55,940
  Ki: 90.8 nM
